From patent publication US20140272000A1, “Liquids and Foodstuffs Containing beta-hydroxy-beta-methylbutyrate (HMB) in the Free Acid Form and Methods of Manufacturing or Producing the Same” (Metabolic Technologies, Inc., priority 2013, published 2014)

Experiments:
Assay type in all cases: physicochemical
[1] = Stability of product composition (physical appearance) with the addition of HMB, free acid and calcium salt forms; details: Ensure Clear, two flavors, 1 g CaHMB or 0.8 g HMB free acid in 40 ml
Procedure: • 1. N=2 (Two flavors of a commercially available ready-to-drink soluble-protein product; Ensure Clear, pH approximately 2.74) • 2. Label the glass bottles A1-A3 and B1-B3. The labels correspond to the following conditions:
• 3. To bottles A2 and B2 1 g of CaHMB MTI 1208-100-02 TSI 12070630 added. • 4. To bottles A3 and B3 0.8 g of HMB Free Acid MTI 1103-100-09 Lot 11010084 added. • 5. 40 ml of Peach flavored product added to the bottles labeled A1-A3. • 6. 40 ml of Blueberry Pomegranate flavored product added to the bottles labeled B1-B3. • 7. Bottles were sealed with rubber caps and crimped shut. Then, they were mixed well and placed on shelf. • 8. Appearances were noted and photos were taken daily (bottles were not disturbed).
Table 2 reports the physical appearance of the ready-to-drink soluble-protein product (n=2) following the addition of CaHMB or HMB free acid and mixing. HMB was not added to the control bottles. Day 1 was recorded after initial mixing.

[2] = Long term stability (appearance) in soluble-protein drinks; details: 42 days; ISOPURE protein drink, GNC protein juice, Gatorade Recover, Spartos protein water; 250 mg CaHMB or 200 mg HMB FA in 40 ml
Procedure: • 1. Rinse 12 glass bottles with ethanol and let air dry overnight. • 2. Label the glass bottles A1-A3, B1-B3, C1-C3 and D1-D3. The labels correspond to the following conditions:
• 3. To bottles A2-D2 CaHMB MTI 1208-100-02 TSI 12070630 was used. • 4. To bottles A3-D3 HMB Free Acid MTI 1103-100-09 Lot 11010084 was used. • 5. Add 40 ml of ISOPURE protein drink to A1-A3, 40 ml of GNC protein juice to B1-B3, 40 ml Gatorade Recover to C1-C3, and 40 ml Spartos protein water to D1-D3. • 6. Flush with nitrogen and seal the bottles with rubber caps and metal clamp caps. • 7. Mix well. • 8. Take photo of bottles A1-A3, B1-B3, C1-C3, and D1-D3 every Friday. The photos appear in FIG. 2a-2d. The following tables 6-9 provide the nutritional information for each of the liquids tested (ISOPURE, GNC Protein Juice, Gatorade G3-Recover, and Spartos protein water.)

[3] = General observation on addition of HMB forms to liquids
[4] = Stability of HMB-acid at various concentrations in soluble protein (ISOPURE protein drink) over 120 days, HPLC
Procedure: This experiment was designed to observe the stability of HMB-acid at various concentrations in soluble protein over 120 days.
To analyze the stability of HMB free acid in the soluble protein (ISOPURE protein drink, Natures Best®, Hauppauge, N.Y.), different concentrations of HMB free acid were added to the recommended serving size of ISOPURE protein drink. The three concentrations were 300 mg/240 ml, 1000 mg/240 ml, and 3000 mg/240 ml. HMB free acid was measured for each solution using HPLC at 5 different time points: 0, 30, 60, 90, and 120 d. HMB free acid used was MTI 1301-100-03 (Lot 120111036). ISOPURE protein drink used was Lot 1212111132310. ISOPURE protein drink has a pH of approximately 2.54. All glassware and supplies used were autoclaved in preparation of the three different concentrations of HMB free acid in ISOPURE protein drink for the 5 different time points. Materials to be autoclaved were as follows: glass bottles, rubber and metal seals, pipette tips, and graduated cylinder. Autoclave Method #1 for dry goods in Building 3 of ISU Research Park was used.
• For bottles in group A, 60 mg of HMBFA into each of the five bottles was added, and then 48 ml of ISOPURE protein drink was added. The HMBFA concentration was 1.25 mg/ml. • For bottles in group B 200 mg of HMBFA into each of the five bottles was added, and then 48 ml of ISOPURE protein drink was added. The HMBFA concentration was 4.16 mg/ml. • For bottles in group C, 600 mg of HMBFA into each of the five bottles was, and then 48 ml of ISOPURE protein drink was added.
Each sample bottle was flushed with nitrogen and then the top of the bottle was sealed with rubber caps, crimped shut and mix well. • One bottle of each concentration was tested for HMB using SOP 113-04 HMB (modified standard curve), at Time 0, 30, 60, 90, and 120 d.
To prepare the samples for testing, 0.5 ml of the sample was transferred to a microcentrifuge tube in quadruplet. Then 0.25 ml of KIV internal standard added to standards and three of each sample set. Finally, 0.25 ml 0.2M phosphate buffer was added to the three samples with KIV internal standard and 0.5 ml 0.2M phosphate buffer to the samples not containing KIV.
The samples were considered stable with a ±5% of expected change HMB concentration over the four months with an allowable ±3% analytical variation. A linear regression was conducted on the data as a secondary measure of stability.

[5] = Day 1 (after initial mixing), pH approximately 2.74

Compound | Physical appearance [1, 5] | Physical appearance ([1]; Day 7, bottles not disturbed) | Physical appearance ([1]; Day 14, bottles not disturbed) | Physical appearance ([1]; Day 21, bottles not disturbed) | Appearance of the liquids [2] | Changes in the physical appearance on addition ([3]; commercially available soluble-protein containing ready-to-drink products) | Going into solution when added to a liquid ([3]; added to a liquid, slight shaking) | Decrease in HMB free acid, of the expected amount ([4]; 300 mg/serving of soluble protein, 120 days (FIG. 3)) | Linear decrease over time (linear regression) ([4]; 300 mg/serving, 120 days, p<0.05) | Decrease in HMB free acid, of the expected amount ([4]; 1000 mg/serving of soluble protein, 120 days (FIG. 4)) | Linear decrease over time (linear regression) ([4]; 1000 mg/serving, 120 days, p<0.05) | Decrease in HMB free acid, of the expected amount ([4]; 3000 mg/serving of soluble protein, 120 days (FIG. 5)) | Linear decrease over time (linear regression) ([4]; 3000 mg/serving, 120 days, p<0.05) | Stability in a drink containing soluble protein ([4]; room temperature, 120 days) | Changes in HMB concentration over time ([4]; three concentrations (300, 1000, 3000 mg/serving) in ISOPURE, 120 d) | Linear decrease over time (linear regression) ([4]; three concentrations in ISOPURE, 120 d, p>0.05)
CC(C)(O)CC(=O)[O-].CC(C)(O)CC(=O)[O-].[Ca+2] [CaHMB, reference compound] | Cloudy | Defined Separation | Defined Separation w/Particulates | Defined Separation w/Particulates | cloudy and contain precipitate | sedimentation and clumping | – | – | – | – | – | – | – | – | – | –
CC(C)(O)CC(=O)O [HMB free acid, β-Hydroxy-β-methylbutyrate] | Semi-Clear | Semi-Clear | Semi-Clear | Semi-Clear | clear and precipitate-free | – | goes into solution almost instantly | less than 8% | no significant linear decrease | less than 8% | no significant linear decrease | less than 8% | no significant linear decrease | remaining stable | less than 8.0% | no significant linear decrease
